Literature values in patent US7378519B2, “Adduct of topiramate and tramadol hydrochloride and uses thereof” (Cilag GmbH International, priority 2002, dated 2008).
Where a name gives a salt, the structure may show the parent alone.

Test system: Chung model of post-nerve constriction injury
Conditions: each drug alone, as the dose is escalated

SMILES | MPE (Maximum Possible Effect) reached
CC1(C)O[C@@H]2[C@@H](CO[C@@]3(COS(N)(=O)=O)OC(C)(C)O[C@@H]23)O1 [topiramate, 2,3:4,5-bis-O-(1-methylethylidene)-β-D-fructopyranose sulfamate] | 100 % MPE
COc1cccc(C2(O)CCCCC2CN(C)C)c1 (single isomer, unassigned) [tramadol hydrochloride, (1R,2R or 1S,2S)-2-[(dimethylamino)methyl]-1-(3-methoxyphenyl)-cyclohexan-1-ol] | 100 % MPE
